Results on 19 compounds are retold here after patent publication US20070049593A1 (priority 2004, published 2007).

Structures are written as SMILES. Where a name gives a salt, the structure may show the parent alone. A value given as a limit tells only on which side of the number the result lay.

This assay deals with T1, HCV polymerase (Hepatitis C virus genotype 1b, UniProt P26663).
T1 construct: a region encoding NS5B (J Virol 1991 March, 65(3), 1105-13, 544 amino acids after deletion of 47 amino acids on the C-terminal); 6xHis (C); made in house; host or cells: Escherichia coli
Put plainly: biochemical. Details: species or system HCV BK strain. Summed up: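 Recombinant HCV BK-strain NS5B (C-terminal 47 aa deleted, His6-tagged, E. coli), 0.5 μg/ml, run with 5 μg/ml in vitro-transcribed RNA template (polyU/3′X), ATP/GTP/CTP 50 μM, UTP 2 μM plus [3H]UTP, pH 7.5, 25° C, 90 min. TCA-precipitated RNA counted by scintillation; IC50 from activity with vs without compound.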

T1 sequence (P26663 2420-2963): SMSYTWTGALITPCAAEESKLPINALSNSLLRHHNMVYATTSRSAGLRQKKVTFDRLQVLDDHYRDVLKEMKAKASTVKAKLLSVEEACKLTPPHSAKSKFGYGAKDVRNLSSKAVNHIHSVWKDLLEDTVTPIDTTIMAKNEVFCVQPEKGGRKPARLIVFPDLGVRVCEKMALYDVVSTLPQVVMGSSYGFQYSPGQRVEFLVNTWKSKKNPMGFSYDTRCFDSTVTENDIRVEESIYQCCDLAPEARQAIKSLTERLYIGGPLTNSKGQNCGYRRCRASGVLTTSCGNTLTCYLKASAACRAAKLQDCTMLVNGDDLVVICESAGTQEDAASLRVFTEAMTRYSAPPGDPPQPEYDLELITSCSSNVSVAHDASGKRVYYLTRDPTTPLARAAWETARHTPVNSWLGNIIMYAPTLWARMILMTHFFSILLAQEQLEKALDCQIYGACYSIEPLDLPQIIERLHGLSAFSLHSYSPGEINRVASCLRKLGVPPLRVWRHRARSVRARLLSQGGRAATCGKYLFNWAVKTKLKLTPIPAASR

For orientation: IC50 means the point on the concentration scale where inhibition reaches its midpoint. Read a low IC50 as inhibition by little substance. `CCN1CCN(c2ccc(N3CCCC3=O)cc2COc2ccc3c(c2)OCCn2c-3c(C3CCCCC3)c3ccc(C(=O)O)cc32)CC1` [Example 2-28, 12-cyclohexyl-3-[2-(4-ethylpiperazin-1-yl)-5-(2-oxopyrrolidin-1-yl)benzyloxy]-6,7-dihydro-5-oxa-7a-azadibenzo[a,e]azulene-9-carboxylic acid dihydrochloride] had an IC50 of under 100 nM.

Consider `Cc1ccc2c(c1)N(CCC13CCC(CC1)N3CC(=O)O)CCn1c-2c(C2CCCCC2)c2ccc(C(=O)O)cc21` [Example 1-489, 5-[2-(7-carboxymethyl-7-azabicyclo[2.2.1]hept-1-yl)ethyl]-13-cyclohexyl-3-methyl-6,7-dihydro-5H-benzo[5,6][1,4]diazepino[7,1-a]indole-10-carboxylic acid], for which the IC50 was under 100 nM.

Consider `O=C(O)c1ccc2c(C3CCCCC3)c3n(c2c1)CCN(CCCCN1CCCCC1)c1cc(Cl)ccc1-3` [Example 1-415, 3-chloro-13-cyclohexyl-5-[4-(piperidin-1-yl)butyl]-6,7-dihydro-5H-benzo[5,6][1,4]diazepino[7,1-a]indole-10-carboxylic acid], for which the IC50 was under 100 nM.

`CCOC(=O)c1ccc(-c2cnc(C(C)(C)NC(=O)c3ccc4c(C5CCCCC5)c5n(c4c3)CCOc3cc(OC)ccc3-5)[nH]2)cc1` [Example 2-398, ethyl 4-(2-{1-[(12-cyclohexyl-3-methoxy-6,7-dihydro-5-oxa-7a-azadibenzo[a,e]azulene-9-carbonyl)amino]-1-methylethyl}-3H-imidazol-4-yl)benzoate] came in with an IC50 of under 100 nM.

Take `CS(=O)(=O)N1CCN(CCN2CCn3c(c(C4CCCCC4)c4ccc(C(=O)O)cc43)-c3ccccc32)CC1` [Example 1-91, 13-cyclohexyl-5-[2-(4-methanesulfonylpiperazin-1-yl)ethyl]-6,7-dihydro-5H-benzo[5,6][1,4]diazepino[7,1-a]indole-10-carboxylic acid dihydrochloride]: the 50% inhibitory concentration (IC50) is under 100 nM.

With `COc1ccc2c(c1)N(CC(C)C)CCn1c-2c(C2CCCCC2)c2ccc(C(=O)NC3(C(=O)Nc4ccc(/C=C/C(=O)O)cc4)CCC3)cc21` [Example 1-484, (E)-3-[4-({1-[(13-cyclohexyl-5-isobutyl-3-methoxy-6,7-dihydro-5H-benzo[5,6][1,4]diazepino[7,1-a]indole-10-carbonyl)amino]cyclobutanecarbonyl}amino)phenyl]acrylic acid], the IC50 was under 100 nM.

For the compound `COC(=O)[C@H](Cc1ccc(N)cc1)NC(=O)c1ccc2c(C3CCCCC3)c3n(c2c1)CCOc1cc(OC)ccc1-3` [Example 2-319, methyl (S)-3-(4-aminophenyl)-2-[(12-cyclohexyl-3-methoxy-6,7-dihydro-5-oxa-7a-azadibenzo[a,e]azulene-9-carbonyl)amino]propionate], the IC50 was under 100 nM.

As for `COc1ccc2c(c1)OCCn1c-2c(C2CCCCC2)c2ccc(C(=O)NC3(C(=O)Nc4ccc(/C=C/C(=O)O)cc4)CCOCC3)cc21` [Example 2-401, (E)-3-[4-({4-[(12-cyclohexyl-3-methoxy-6,7-dihydro-5-oxa-7a-azadibenzo[a,e]azulene-9-carbonyl)amino]tetrahydropyran-4-carbonyl}amino)phenyl]acrylic acid], the IC50 is under 100 nM.

The compound `COc1ccc2c(c1)OCCn1c-2c(C2CCCCC2)c2ccc(C(=O)NC3(C(=O)Nc4ccc5nc[nH]c5c4)CCC3)cc21` [Example 2-448, N-[1-(3H-benzimidazol-5-ylcarbamoyl)cyclobutyl]-12-cyclohexyl-3-methoxy-6,7-dihydro-5-oxa-7a-azadibenzo[a,e]azulene-9-carboxamide] registered an IC50 of under 100 nM.

`O=C(O)c1ccc2c(C3CCCCC3)c3n(c2c1)CCOc1c(-c2ccccc2)cccc1-3` [Example 2-273, 12-cyclohexyl-4-phenyl-6,7-dihydro-5-oxa-7a-azadibenzo[a,e]azulene-9-carboxylic acid] showed an IC50 of under 100 nM.

`COc1ccc2c(c1)OCCn1c-2c(C2CCCCC2)c2ccc(C(=O)N[C@@H](Cc3ccc(O)cc3)C(=O)OC(C)(C)C)cc21` [Example 2-452, tert-butyl (S)-2-[(12-cyclohexyl-3-methoxy-6,7-dihydro-5-oxa-7a-azadibenzo[a,e]azulene-9-carbonyl)amino]-3-(4-hydroxyphenyl)propionate]: the IC50 was under 100 nM.

With `O=C(O)c1ccc2c(C3CCCCC3)c3n(c2c1)CCN(CCN1CCCCC1)c1ccc(F)cc1-3` [Example 1-18, 13-cyclohexyl-2-fluoro-5-[2-(piperidin-1-yl)ethyl]-6,7-dihydro-5H-benzo[5,6][1,4]diazepino[7,1-a]indole-10-carboxylic acid dihydrochloride], the IC50 was under 100 nM.

Take `CCC1CCCCN1CCN1CCn2c(c(C3CCCCC3)c3ccc(C(=O)O)cc32)-c2ccc(C)cc21` (stereo not shown) [Example 1-333, 13-cyclohexyl-5-[2-(2-ethylpiperidin-1-yl)ethyl]-3-methyl-6,7-dihydro-5H-benzo[5,6][1,4]diazepino[7,1-a]indole-10-carboxylic acid dihydrochloride]: the IC50 is under 100 nM.

As to `COC[C@@H]1CCCN1CCN1CCn2c(c(C3CCCCC3)c3ccc(C(=O)O)cc32)-c2ccccc21` [Example 1-207, 13-cyclohexyl-5-[2-((S)-2-methoxymethylpyrrolidin-1-yl)ethyl]-6,7-dihydro-5H-benzo[5,6][1,4]diazepino[7,1-a]indole-10-carboxylic acid dihydrochloride], the IC50 was under 100 nM.

As to `O=C(O)c1ccc2c(C3CCCCC3)c3n(c2c1)CCOc1c-3cccc1N(CCN1CCOCC1)CCN1CCOCC1` [Example 2-361, 4-{bis[2-(morpholin-4-yl)ethyl]amino}-12-cyclohexyl-6,7-dihydro-5-oxa-7a-azadibenzo[a,e]azulene-9-carboxylic acid trihydrochloride], the IC50 is under 100 nM.

Consider `COC(=O)c1ccc2nc(C3(NC(=O)c4ccc5c(C6CCCCC6)c6n(c5c4)CCOc4ccccc4-6)CCC3)[nH]c2c1` [Example 2-152, methyl 2-{1-[(12-cyclohexyl-6,7-dihydro-5-oxa-7a-azadibenzo[a,e]azulene-9-carbonyl)amino]cyclobutyl}-3H-benzimidazole-5-carboxylate], for which the IC50 was under 100 nM.

In turn, `O=C(O)c1ccc2c(C3CCCCC3)c3n(c2n1)CCN(CCN1CCCCC1)c1cc(Cl)ccc1-3` [Example 8-5, 3-chloro-12-cyclohexyl-5-(2-piperidin-1-ylethyl)-6,7-dihydro-5H-5,7a,8-triazadibenzo[a,e]azulene-9-carboxylic acid trihydrochloride] gave an IC50 of under 100 nM.

Regarding `CN(C)CCN1CCn2c(c(C3CCCCC3)c3ccc(C(=O)O)cc32)-c2ccc(OCc3cccc(C(=O)N(C)C)c3)cc21` [Example 1-587, 13-cyclohexyl-5-(2-dimethylaminoethyl)-3-(3-dimethylcarbamoylbenzyloxy)-6,7-dihydro-5H-benzo[5,6][1,4]diazepino[7,1-a]indole-10-carboxylic acid dihydrochloride], the IC50 is under 100 nM.

In turn, `Cc1ccc2c(c1)N(CCc1ccc(F)cc1)CCn1c-2c(C2CCCCC2)c2ccc(C(=O)O)cc21` [Example 1-581, 13-cyclohexyl-5-[2-(4-fluorophenyl)ethyl]-3-methyl-6,7-dihydro-5H-benzo[5,6][1,4]diazepino[7,1-a]indole-10-carboxylic acid] displayed an IC50 of under 100 nM.
